Laboratory results reported in patent publication US6462055B2, “Alpha-methylbenzyl-containing thiourea inhibitors of herpes viruses containing a phenylenediamine group” (Wyeth, priority 1998, dated 2002).
Values after ≈ are worked out from the molar mass of the structure shown.

test system: VZV strain Ellen; assay: VZV Antiviral (ELISA) Assay in human foreskin fibroblast cells; type: cell-based, varicella-zoster virus; details: not given
In short: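 Antiviral IC50 is derived by comparing fluorescence with and without compound after a three-day culture of VZV-infected plus uninfected foreskin fibroblasts. Replication is quantified by ELISA against glycoprotein II, using a β-galactosidase secondary and methyl umbelliferyl-β-D-galactoside.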

| SMILES | IC50 (ug/ml) VZV [µg/mL] |
| --- | --- |
| O=C(Nc1ccc(NC(=S)NCCc2ccc(F)cc2)cc1)c1ccccc1F [Example 552] | >10 |
| O=C(Nc1ccc(NC(=S)NCCc2cccc(Cl)c2)cc1)c1ccccc1F [Example 563] | 9 (≈ 21 µM) |
| CC(NC(=S)Nc1ccc(NC(=O)c2ccccc2F)cc1)c1ccccc1 (stereo not drawn) [Example 589] | 0.36 (≈ 0.915 µM) |
| CC(C)CN(C)c1cc(NC(=S)Nc2ccc(NC(=O)c3ccccc3F)cc2)cc(C(F)(F)F)c1 [Example 596] | >10 |
| CCCCN(C)c1cc(NC(=S)Nc2ccc(NC(=O)c3ccccc3F)cc2)cc(C(F)(F)F)c1 [Example 598] | >10 |
| O=C(Nc1ccc(NC(=S)NCCCc2ccccc2)cc1)c1ccccc1F [Example 628] | 10 (≈ 24.5 µM) |
| CN(C)c1cc(CNC(=S)Nc2ccc(NC(=O)c3ccccc3F)cc2)cc(C(F)(F)F)c1 [Example 636] | 5 (≈ 10.2 µM) |
| COc1cccc(C(=O)Nc2ccc(NC(=S)NC(C)c3ccc(F)cc3)cc2)c1 (stereo not drawn) [Example 753] | >7.5 |
| COc1ccc(C(=O)Nc2ccc(NC(=S)NC(C)c3ccc(F)cc3)cc2)cc1 (stereo not drawn) [Example 754] | 0.2 (≈ 0.472 µM) |
| CC(NC(=S)Nc1ccc(NC(=O)c2ccccc2Cl)cc1)c1ccc(F)cc1 (stereo not drawn) [Example 755] | 7 (≈ 16.4 µM) |
| CC(NC(=S)Nc1ccc(NC(=O)c2ccc(Cl)cc2)cc1)c1ccc(F)cc1 (stereo not drawn) [Example 756] | 0.3 (≈ 0.701 µM) |
| CC(=O)Oc1ccc(C(=O)Nc2ccc(NC(=S)NC(C)c3ccc(F)cc3)cc2)cc1 (stereo not drawn) [Example 757] | 1.5 (≈ 3.32 µM) |
| CCCCC(NC(=S)Nc1ccc(NC(=O)c2ccccc2F)cc1)c1ccc(F)cc1 (stereo not drawn) [Example 773] | >7.5 |
| O=C(Nc1ccc(NC(=S)NC(Cc2ccccc2)c2ccc(F)cc2)cc1)c1ccccc1F (stereo not drawn) [Example 774] | >7.5 |
| Cc1ccccc1C(C)NC(=S)Nc1ccc(NC(=O)c2ccccc2F)cc1 (stereo not drawn) [Example 775] | >7.5 |
| Cc1cccc(C(C)NC(=S)Nc2ccc(NC(=O)c3ccccc3F)cc2)c1 (stereo not drawn) [Example 776] | >7.5 |
| COc1ccc(C(C)NC(=S)Nc2ccc(NC(=O)c3ccccc3F)cc2)cc1 (stereo not drawn) [Example 777] | >7.5 |

same assay, conditions: Human alphaherpesvirus 3, Fibroblast, read-out: IC50 (ug/ml) VZV

| SMILES | IC50 [µg/mL] |
| --- | --- |
| O=C(Nc1ccc(NC(=S)NCCc2ccc(F)cc2)cc1)c1ccccc1F [Example 553] | 7 (≈ 17 µM) |
| CC(NC(=S)Nc1ccc(NC(=O)c2ccccc2F)cc1)c1ccc(F)cc1 (stereo not drawn) [Example 591] | 1.5 (≈ 3.65 µM) |
| CC(NC(=S)Nc1ccc(NC(=O)c2ccccc2)cc1)c1ccc(F)cc1 (stereo not drawn) [Example 758] | > 10 |
| CC(NC(=S)Nc1ccc(NC(=O)c2ccc(O)cc2)cc1)c1ccc(F)cc1 (stereo not drawn) [Example 760] | > 10 |
| CC(NC(=S)Nc1ccc(NC(=O)c2ccccc2F)cc1)c1ccccc1F (stereo not drawn) [Example 778] | 3 (≈ 7.29 µM) |

test system: HCMV recombinant mutant virus (RV145); assay: microbe, parasite or virus in culture; type: cell-based, human cytomegalovirus; details: HCMV
In short: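 Human foreskin fibroblasts infected with HCMV RV145 carrying a viral-promoter-driven beta-glucuronidase gene, in presence of compound. At 96 h post-infection, lysates assayed for beta-glucuronidase with colorimetric or fluorogenic glucuronide substrate as replication read-out. IC50 estimated from varying inhibitor amounts.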

| SMILES | IC50 ug/ml HCMV [µg/mL] |
| --- | --- |
| O=C(Nc1ccc(NC(=S)NCCc2ccc(F)cc2)cc1)c1ccccc1F [Example 552] | >0.5 |
| O=C(Nc1ccc(NC(=S)NCCc2cccc(Cl)c2)cc1)c1ccccc1F [Example 563] | >0.5 |
| CC(NC(=S)Nc1ccc(NC(=O)c2ccccc2F)cc1)c1ccccc1 (stereo not drawn) [Example 589] | 7 (≈ 17.8 µM) |
| CC(C)CN(C)c1cc(NC(=S)Nc2ccc(NC(=O)c3ccccc3F)cc2)cc(C(F)(F)F)c1 [Example 596] | 2 (≈ 3.86 µM) |
| CCCCN(C)c1cc(NC(=S)Nc2ccc(NC(=O)c3ccccc3F)cc2)cc(C(F)(F)F)c1 [Example 598] | >10 |
| O=C(Nc1ccc(NC(=S)NCCCc2ccccc2)cc1)c1ccccc1F [Example 628] | >10 |
| CN(C)c1cc(CNC(=S)Nc2ccc(NC(=O)c3ccccc3F)cc2)cc(C(F)(F)F)c1 [Example 636] | >10 |
| COc1cccc(C(=O)Nc2ccc(NC(=S)NC(C)c3ccc(F)cc3)cc2)c1 (stereo not drawn) [Example 753] | >0.5 |
| COc1ccc(C(=O)Nc2ccc(NC(=S)NC(C)c3ccc(F)cc3)cc2)cc1 (stereo not drawn) [Example 754] | >10 |
| CC(NC(=S)Nc1ccc(NC(=O)c2ccccc2Cl)cc1)c1ccc(F)cc1 (stereo not drawn) [Example 755] | >10 |
| CC(NC(=S)Nc1ccc(NC(=O)c2ccc(Cl)cc2)cc1)c1ccc(F)cc1 (stereo not drawn) [Example 756] | >10 |
| CC(=O)Oc1ccc(C(=O)Nc2ccc(NC(=S)NC(C)c3ccc(F)cc3)cc2)cc1 (stereo not drawn) [Example 757] | >10 |
| CCCCC(NC(=S)Nc1ccc(NC(=O)c2ccccc2F)cc1)c1ccc(F)cc1 (stereo not drawn) [Example 773] | 1.2 (≈ 2.65 µM) |
| O=C(Nc1ccc(NC(=S)NC(Cc2ccccc2)c2ccc(F)cc2)cc1)c1ccccc1F (stereo not drawn) [Example 774] | 0.5 (≈ 1.03 µM) |
| Cc1ccccc1C(C)NC(=S)Nc1ccc(NC(=O)c2ccccc2F)cc1 (stereo not drawn) [Example 775] | 1 (≈ 2.45 µM) |
| Cc1cccc(C(C)NC(=S)Nc2ccc(NC(=O)c3ccccc3F)cc2)c1 (stereo not drawn) [Example 776] | 0.9 (≈ 2.21 µM) |
| COc1ccc(C(C)NC(=S)Nc2ccc(NC(=O)c3ccccc3F)cc2)cc1 (stereo not drawn) [Example 777] | 1.7 (≈ 4.01 µM) |

same assay, conditions: Human betaherpesvirus 5, read-out: IC50 ug/ml HCMV, HCMV

| SMILES | IC50 [µg/mL] |
| --- | --- |
| O=C(Nc1ccc(NC(=S)NCCc2ccc(F)cc2)cc1)c1ccccc1F [Example 553] | > 0.5 |
| CC(NC(=S)Nc1ccc(NC(=O)c2ccccc2F)cc1)c1ccc(F)cc1 (stereo not drawn) [Example 591] | 7 (≈ 17 µM) |
| CC(NC(=S)Nc1ccc(NC(=O)c2ccccc2)cc1)c1ccc(F)cc1 (stereo not drawn) [Example 758] | > 10 |
| CC(NC(=S)Nc1ccc(NC(=O)c2ccc(O)cc2)cc1)c1ccc(F)cc1 (stereo not drawn) [Example 760] | > 10 |
| CC(NC(=S)Nc1ccc(NC(=O)c2ccccc2F)cc1)c1ccccc1F (stereo not drawn) [Example 778] | 0.8 (≈ 1.94 µM) |

test system: HSV-1; assay: HSV Antiviral (ELISA) Assay in Vero cells; type: cell-based, herpes simplex virus type 1; details: HSV-1, Vero cells
In short: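 Viral replication was quantified by cell-fixed ELISA for HSV glycoprotein D, using a β-galactosidase reporter and fluorogenic umbelliferyl substrate, about 24 h after HSV-1 infection (MOI 0.006) of Vero cells. Compounds, at several concentrations, were added 30 min pre-infection. IC50 was derived from fluorescence relative to the compound-free signal.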

| SMILES | IC50 (ug/ml) HSV [µg/mL] |
| --- | --- |
| O=C(Nc1ccc(NC(=S)NCCc2ccc(F)cc2)cc1)c1ccccc1F [Example 552] | >10 |
| O=C(Nc1ccc(NC(=S)NCCc2cccc(Cl)c2)cc1)c1ccccc1F [Example 563] | >10 |
| CC(NC(=S)Nc1ccc(NC(=O)c2ccccc2F)cc1)c1ccccc1 (stereo not drawn) [Example 589] | >10 |
| CC(C)CN(C)c1cc(NC(=S)Nc2ccc(NC(=O)c3ccccc3F)cc2)cc(C(F)(F)F)c1 [Example 596] | >10 |
| CCCCN(C)c1cc(NC(=S)Nc2ccc(NC(=O)c3ccccc3F)cc2)cc(C(F)(F)F)c1 [Example 598] | >10 |
| O=C(Nc1ccc(NC(=S)NCCCc2ccccc2)cc1)c1ccccc1F [Example 628] | >10 |
| CN(C)c1cc(CNC(=S)Nc2ccc(NC(=O)c3ccccc3F)cc2)cc(C(F)(F)F)c1 [Example 636] | >10 |
| COc1cccc(C(=O)Nc2ccc(NC(=S)NC(C)c3ccc(F)cc3)cc2)c1 (stereo not drawn) [Example 753] | >10 |
| COc1ccc(C(=O)Nc2ccc(NC(=S)NC(C)c3ccc(F)cc3)cc2)cc1 (stereo not drawn) [Example 754] | >10 |
| CC(NC(=S)Nc1ccc(NC(=O)c2ccccc2Cl)cc1)c1ccc(F)cc1 (stereo not drawn) [Example 755] | >10 |
| CC(NC(=S)Nc1ccc(NC(=O)c2ccc(Cl)cc2)cc1)c1ccc(F)cc1 (stereo not drawn) [Example 756] | >10 |
| CC(=O)Oc1ccc(C(=O)Nc2ccc(NC(=S)NC(C)c3ccc(F)cc3)cc2)cc1 (stereo not drawn) [Example 757] | >10 |
| CCCCC(NC(=S)Nc1ccc(NC(=O)c2ccccc2F)cc1)c1ccc(F)cc1 (stereo not drawn) [Example 773] | >10 |
| O=C(Nc1ccc(NC(=S)NC(Cc2ccccc2)c2ccc(F)cc2)cc1)c1ccccc1F (stereo not drawn) [Example 774] | >10 |
| Cc1ccccc1C(C)NC(=S)Nc1ccc(NC(=O)c2ccccc2F)cc1 (stereo not drawn) [Example 775] | >10 |
| Cc1cccc(C(C)NC(=S)Nc2ccc(NC(=O)c3ccccc3F)cc2)c1 (stereo not drawn) [Example 776] | >10 |
| COc1ccc(C(C)NC(=S)Nc2ccc(NC(=O)c3ccccc3F)cc2)cc1 (stereo not drawn) [Example 777] | >10 |

same assay, conditions: Human alphaherpesvirus 1; HSV-1, Vero cells; read-out: IC50 (ug/ml) HSV

| SMILES | IC50 [µg/mL] |
| --- | --- |
| O=C(Nc1ccc(NC(=S)NCCc2ccc(F)cc2)cc1)c1ccccc1F [Example 553] | > 10 |
| CC(NC(=S)Nc1ccc(NC(=O)c2ccccc2F)cc1)c1ccc(F)cc1 (stereo not drawn) [Example 591] | > 10 |
| CC(NC(=S)Nc1ccc(NC(=O)c2ccccc2)cc1)c1ccc(F)cc1 (stereo not drawn) [Example 758] | > 10 |
| CC(NC(=S)Nc1ccc(NC(=O)c2ccc(O)cc2)cc1)c1ccc(F)cc1 (stereo not drawn) [Example 760] | > 10 |
| CC(NC(=S)Nc1ccc(NC(=O)c2ccccc2F)cc1)c1ccccc1F (stereo not drawn) [Example 778] | > 10 |
